From patent US20240082238A1, “COMPOSITIONS AND METHODS FOR TREATING CANCER” (UNIVERSITY OF IOWA RESEARCH FOUNDATION, priority 2021, published 2024)
pIC50: −log10 of the molar value. Where “and” joins values, the source holds several entries; their conditions need not be identical. Identical values can stand only once. Like-named read-outs stand apart in the source and are kept apart here.

Key:
Hec50co tumors = assay: In vivo tumor accumulation of PTX-OG after peritumoral SC injection; parameters: species or system athymic Nu/Nu mice; conditions: 0.1 mg/kg PTX-OG SC peritumoral, 24 h
Protocol: Effect of drug combination on the in vivo tumor accumulation of PTX In this study, athymic Nu/Nu mice were challenged with 1×10^6 of Hec50co tumor cells per mouse on day zero of the experiment. When the tumor grew to a palpable size range of 100-150 mm^3, as measured by Equation 2, treatments were administered SC at the tumor site (peritumoral). Treatment groups (n=3 per group) included: (i) DPBS treated mice, 0.1 mg/kg PTX-OG, and 0.1 mg/kg PTX-OG+5 mg/kg CIP2b. After 24 hours, mice were euthanized, and tumors were collected and submerged in Hank's Balanced Salt Solution (HBSS) with calcium and magnesium. Tumors were then taken out of HBSS (one at a time to maintain cell viability), placed on a Petri dish, and mechanically minced with a sterile scalpel and forceps into small pieces. Tumor pieces were transferred to 50 mL tubes containing 10 mL of the pre-warmed (37° C.) sterile cell dissociation buffer (HBSS containing 50,000 U of collagenase IV and 100,000 U of DNase I). Samples were incubated at 37° C. under continuous rotation at 300 rpm for 60 minutes in the incubator-shaker. Then, cell suspensions were filtered through a 70 μm cell strainer then a 40 μm cell strainer to remove any aggregates. […] Finally, cell suspensions were acquired using a FACSCalibur flow cytometer, and data were analyzed using FlowJo software.

Hec50co cells [1] = assay: Cytotoxicity assay (MTS), Hec50co cells; type: cell-based, human; conditions: 72 h; for pIC50: Homo sapiens
Protocol: Cytotoxicity assay. Hec50co cells were seeded at 1500 cells per well in 96-well plates for 24 h in a complete medium. Later, the medium was removed and PTX, CIP2b, or CIP (all dissolved in DMSO and diluted in complete medium) were added to cells as either monotherapies or in combinations, and the plates were incubated for 72 hours. Then, the complete medium was removed and MTS reagent in the complete medium was added to wells, and the plates were incubated for 1-4 hours according to the manufacturer's protocol. Finally, the absorbance was recorded at 490 nm using a Spectra Max plus 384 Microplate Spectrophotometer (Molecular Devices, Sunnyvale, CA). Percentage cell viability was expressed as the average absorbance of the test group relative to that of the control group (untreated cells). The concentration that inhibits proliferation of 50% of cells compared to control (IC50) was calculated using GraphPad Prism (La Jolla, CA). Synergism was detected following the Chou-Talalay method (CI<1 indicates synergism) (Chou T C. Cancer research. 2010; 70(2):440-6, doi: 10.1158/0008-5472.CAN-09-1947) using CompuSyn software (Ver. 1.0). […]

caspase 9 = assay: Caspase multiplex activity assay, caspase 9; type: cell-based, human; conditions: 24 h
Protocol: Apoptosis and caspase activity. The expression of caspase 3, 8, and 9 was measured using Multiplex Activity Assay Fluorometric Kit (Cat. No. ab219915, Abcam). Briefly, Hec50co cells were plated in 96-well plates at a density of 3000 per well in 100 μL of the complete medium and incubated for 24 hours. After incubation, the medium was removed, and different concentrations either in single or combination of treatments were added (PTX 5 and 10 nM; CIP2b 10, 25, and 50 μM). Cells with treatments were incubated for 24 or 72 hours. Then, the caspase kit reagents were added to the cells and incubated at room temperature for 60 minutes. Fluorescence intensity (at excitation/emission values of 535/620 nm, 490/525 nm, and 370/450 nm for caspase 3, 8, and 9, respectively) was then measured using a SpectraMax M5 microplate reader (Molecular Devices).

Hec50co cells [2] = assay: Cell cycle assay (PI flow cytometry); type: cell-based, human; conditions: 24 h
Protocol: Cell Cycle assay. Hec50co cells were seeded at […] cells per well in 6-well plates for 48 h in complete medium. The medium was then removed and replaced with PTX (1, 5, and 10 nM), CIP2b (10 μM), combinations of PTX with CIP2b, or with a fresh complete medium. Cells were incubated with the treatments for 24 h, then the medium was removed, and the cells were washed twice with Dulbecco's Phosphate-Buffered Saline (DPBS 1×, ThermoFisher Scientific), trypsinized (0.4 mL/well), and collected by centrifugation (230 xg, 5 min). Cells were then fixed using 70% ethanol stored at 4° C. for 30 min, then incubated with 100 μg/mL RNase A in 2% v/v NP-40 Surfact-Amps® solution (0.5 mL/sample) for 30 min at 37° C. Then, PI (50 μg/mL, 0.5 mL/sample) was added prior to analysis by flow cytometry (FACScan, BD Biosciences) using CellQuest software (Ver. 3.3). The data were further analyzed by ModFit LT (Ver. 5.0) to calculate the percent of cells in each phase of the cell cycle (i.e., G0/G1, S, G2/M).
In vitro activity of CIP2b NPs. […] An equivalent quantity of blank NPs was also tested to account for the effect of the PLGA NPs alone without CIP2b. […] An equivalent quantity of blank NPs was also added, either alone or with PTX-OG. Samples were then analyzed using a flow cytometer, as described above.

Structure (SMILES): CC(=O)O[C@H]1C(=O)[C@@]2(C)[C@H]([C@H](OC(=O)c3ccccc3)[C@]3(O)C[C@H](OC(=O)[C@H](O)[C@@H](NC(=O)c4ccccc4)c4ccccc4)C(C)=C1C3(C)C)[C@]1(OC(C)=O)CO[C@@H]1C[C@@H]2O [PTX, paclitaxel]
- in vivo intracellular accumulation of PTX-OG by tumor cells vs untreated control (Hec50co tumors): marginal in vivo intracellular accumulation
- survival (Hec50co cells [1]; 0.1 nM PTX alone): 100%
- cell survival (Hec50co cells [1]; 5 nM PTX as single compound): about 80%
- pIC50 (Hec50co cells [1]; 10 μM CIP2b added, read-out: IC50 value of PTX): 8.51
- pIC50 (Hec50co cells [1]; 25 μM CIP2b added, read-out: IC50 value of PTX): 8.67
- pIC50 (Hec50co cells [1]; PTX alone): 8.06
- expression of caspase 9 vs untreated (caspase 9; 5 nM PTX): not statistically different from untreated cells
- level of caspase 9 expression vs untreated (caspase 9; 10 nM PTX): significantly higher
- cell population at the G2/M phase (Hec50co cells [2]; 5 nM PTX): approximately 46%
- cell population at the G2/M phase (Hec50co cells [2]; 10 nM PTX): ~70% and 69.5%
